Patent US9371336B2, “Compounds for treating spinal muscular atrophy” (PTC Therapeutics Inc., priority 2012, dated 2016)

Key:
[1] = test system: SMN2 minigene mRNA (SMN2-A minigene construct); assay: SMN2 minigene mRNA splicing RT-qPCR assay in cultured cells; format: cell-based, human; settings: Homo sapiens, HEK293-H; HEK293H cells stably transfected with SMN2-A minigene, 24 hours, 7-point concentration data; concentration giving 1.5-fold SMN2 full length mRNA relative to vehicle-treated cells; read-out: EC1.5x for production of full length SMN2 mRNA
Outline: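 Full-length SMN2 minigene mRNA, measured by exon 7/luciferase-specific RT-qPCR that excludes endogenous SMN1/SMN2, was normalized to GAPDH and expressed relative to vehicle-treated cells via modified ΔΔCt. Stably transfected HEK293H cells received compound (7-point, 3.16-fold series, duplicates) for 24 h at 37 °C.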

Smn protein = Smn protein assay (HTRF) in cultured cells (SMA patient fibroblasts GM03813); format: cell-based, human; settings: 48 hours; for maximum fold (Fold) increase of Smn protein: SMA patient fibroblast cells, 7-point concentration curve, relative to vehicle control; for EC1.5x for Smn protein expression: SMA patient fibroblast cells (GM03813), HTRF, 7-point concentration data, concentration producing 1.5 times Smn protein vs DMSO vehicle control
Outline: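 SMA patient fibroblasts (GM03813) were treated 48 h at 37° C with a 7-point, 3.16-fold compound series in triplicate, then lysed in RIPA. Smn was read by HTRF (anti-SMN d2/kryptate, 665/620 nm ratio). ΔF versus blank was divided by vehicle ΔF to give fold Smn increase.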

CCCN1CCN(c2ccc3cc(-c4nc5c(Cl)cccc5s4)c(=O)oc3n2)CC1 [Cpd 13, 3-(4-chloro-1,3-benzothiazol-2-yl)-7-(4-propylpiperazin-1-yl)-2H-pyrano[2,3-b]pyridin-2-one]
EC (1.5-fold) [1]: 1 to 3 µM
maximum fold (Fold) increase of Smn protein (Smn protein): *** (a fold increase between >1.35 and ≦1.5 is indicated by three stars (***))
melting point: 251 to 254 °C

Cc1csc(-c2cc3ccc(N4CCNCC4)nc3oc2=O)n1.Cl [Cpd 15, 3-(4-methyl-1,3-thiazol-2-yl)-7-(piperazin-1-yl)-2H-pyrano[2,3-b]pyridin-2-one hydrochloride]
EC (1.5-fold) [1]: 3 to 30 µM
maximum fold (Fold) increase of Smn protein (Smn protein): ** (a fold increase between >1.2 and ≦1.35 is indicated by two stars (**))
melting point: 238 to 242 °C

Cl.O=c1oc2nc(N3CCNCC3)ccc2cc1-c1nc(C(F)(F)F)cs1 [Cpd 16, 7-(piperazin-1-yl)-3-[4-(trifluoromethyl)-1,3-thiazol-2-yl]-2H-pyrano[2,3-b]pyridin-2-one hydrochloride]
EC (1.5-fold) [1]: 1 to 3 µM
maximum fold (Fold) increase of Smn protein (Smn protein): * (A maximum fold increase ≦1.2 is indicated by one star (*))
melting point: 274 to 280 °C

CCN1CCN(c2ccc3cc(-c4nc5ccccc5s4)c(=O)oc3n2)CC1 [Cpd 17, 3-(1,3-benzothiazol-2-yl)-7-(4-ethylpiperazin-1-yl)-2H-pyrano[2,3-b]pyridin-2-one]
EC (1.5-fold) [1]: 0.3 to 1 µM
maximum fold (Fold) increase of Smn protein (Smn protein): *** (a fold increase between >1.35 and ≦1.5 is indicated by three stars (***))
melting point: 254 to 257 °C

CCCN1CCN(c2ccc3cc(-c4nc5ccccc5s4)c(=O)oc3n2)CC1 [Cpd 18, 3-(1,3-benzothiazol-2-yl)-7-(4-propylpiperazin-1-yl)-2H-pyrano[2,3-b]pyridin-2-one]
EC (1.5-fold) [1]: 1 to 3 µM
maximum fold (Fold) increase of Smn protein (Smn protein): * (A maximum fold increase ≦1.2 is indicated by one star (*))
melting point: 247 to 250 °C

CC(C)N1CCN(c2ccc3cc(-c4nc5ccccc5s4)c(=O)oc3n2)CC1 [Cpd 19, 3-(1,3-benzothiazol-2-yl)-7-[4-(propan-2-yl)piperazin-1-yl]-2H-pyrano[2,3-b]pyridin-2-one]
EC (1.5-fold) [1]: 0.3 to 1 µM
maximum fold (Fold) increase of Smn protein (Smn protein): ** (a fold increase between >1.2 and ≦1.35 is indicated by two stars (**))
melting point: 241 to 245 °C

CCN1CCN(c2ccc3cc(-c4nc(C)cs4)c(=O)oc3n2)CC1 [Cpd 20, 7-(4-ethylpiperazin-1-yl)-3-(4-methyl-1,3-thiazol-2-yl)-2H-pyrano[2,3-b]pyridin-2-one]
EC (1.5-fold) [1]: 3 to 30 µM
maximum fold (Fold) increase of Smn protein (Smn protein): * (A maximum fold increase ≦1.2 is indicated by one star (*))
melting point: 228 to 232 °C

CCCN1CCN(c2ccc3cc(-c4nc(C)cs4)c(=O)oc3n2)CC1 [Cpd 21, 3-(4-methyl-1,3-thiazol-2-yl)-7-(4-propylpiperazin-1-yl)-2H-pyrano[2,3-b]pyridin-2-one]
EC (1.5-fold) [1]: 3 to 30 µM
maximum fold (Fold) increase of Smn protein (Smn protein): * (A maximum fold increase ≦1.2 is indicated by one star (*))
melting point: 210 to 214 °C

O=c1oc2nc(N3CCN(CC(O)CO)CC3)ccc2cc1-c1nc2c(Cl)cccc2s1 (stereo not drawn) [Cpd 22, 3-(4-chloro-1,3-benzothiazol-2-yl)-7-[4-(2,3-dihydroxypropyl)piperazin-1-yl]-2H-pyrano[2,3-b]pyridin-2-one]
EC (1.5-fold) [1]: 0.3 to 1 µM
EC1.5x for Smn protein expression (Smn protein): *** (an EC1.5× between >0.3 μM and ≦1 μM is indicated by three stars (***))
maximum fold (Fold) increase of Smn protein (Smn protein): **** (a fold increase between >1.5 and ≦1.65 is indicated by four stars (****))
melting point: 216 to 220 °C

CC(C)N1CCN(c2ccc3cc(-c4nc5c(Cl)cccc5s4)c(=O)oc3n2)CC1 [Cpd 23, 3-(4-chloro-1,3-benzothiazol-2-yl)-7-[4-(propan-2-yl)piperazin-1-yl]-2H-pyrano[2,3-b]pyridin-2-one]
EC (1.5-fold) [1]: 0.3 to 1 µM
maximum fold (Fold) increase of Smn protein (Smn protein): ** (a fold increase between >1.2 and ≦1.35 is indicated by two stars (**))
melting point: 230 to 234 °C

Cc1ccc2nc(-c3cc4ccc(N5CCNCC5)nc4oc3=O)cn2c1.Cl [Cpd 24, 3-(6-methylimidazo[1,2-a]pyridin-2-yl)-7-(piperazin-1-yl)-2H-pyrano[2,3-b]pyridin-2-one hydrochloride]
EC (1.5-fold) [1]: 0.3 to 1 µM
maximum fold (Fold) increase of Smn protein (Smn protein): ** (a fold increase between >1.2 and ≦1.35 is indicated by two stars (**))
melting point: 218 to 222 °C

O=c1oc2nc(N3CCN(CCO)CC3)ccc2cc1-c1nc2ccccc2s1 [Cpd 25, 3-(1,3-benzothiazol-2-yl)-7-[4-(2-hydroxyethyl)piperazin-1-yl]-2H-pyrano[2,3-b]pyridin-2-one]
EC (1.5-fold) [1]: 0.3 to 1 µM
maximum fold (Fold) increase of Smn protein (Smn protein): *** (a fold increase between >1.35 and ≦1.5 is indicated by three stars (***))
melting point: 220 to 224 °C

O=c1oc2nc(N3CCN(CC(O)CO)CC3)ccc2cc1-c1nc2ccccc2s1 (stereo not drawn) [Cpd 26, 3-(1,3-benzothiazol-2-yl)-7-[4-(2,3-dihydroxypropyl)piperazin-1-yl]-2H-pyran [2,3-b]pyridin-2-one]
EC (1.5-fold) [1]: 1 to 3 µM
maximum fold (Fold) increase of Smn protein (Smn protein): ** (a fold increase between >1.2 and ≦1.35 is indicated by two stars (**))
melting point: 236 to 239 °C

Cc1ccn2cc(-c3cc4ccc(N5CCNCC5)nc4oc3=O)nc2c1.Cl [Cpd 29, 3-(7-methylimidazo[1,2-a]pyridin-2-yl)-7-(piperazin-1-yl)-2H-pyrano[2,3-b]pyridin-2-one hydrochloride]
EC (1.5-fold) [1]: ≤ 0.1 µM
maximum fold (Fold) increase of Smn protein (Smn protein): *** (a fold increase between >1.35 and ≦1.5 is indicated by three stars (***))
melting point: 240 to 244 °C

Cl.O=c1oc2nc(N3CCCNCC3)ccc2cc1-c1cn2cccnc2n1 [Cpd 30, 7-(1,4-diazepan-1-yl)-3-(imidazo[1,2-a]pyrimidin-2-yl)-2H-pyrano[2,3-b]pyridin-2-one hydrochloride]
EC (1.5-fold) [1]: 0.1 to 0.3 µM
EC1.5x for Smn protein expression (Smn protein): ** (an EC1.5× between >1 and ≦3 μM is indicated by two stars (**))
maximum fold (Fold) increase of Smn protein (Smn protein): *** (a fold increase between >1.35 and ≦1.5 is indicated by three stars (***))
melting point: 250 to 252 °C

Cl.O=c1oc2nc(N3CCCNCC3)ccc2cc1-c1nc2c(Cl)cccc2s1 [Cpd 31, 3-(4-chloro-1,3-benzothiazol-2-yl)-7-(1,4-diazepan-1-yl)-2H-pyrano[2,3-b]pyridin-2-one hydrochloride]
EC (1.5-fold) [1]: 0.1 to 0.3 µM
maximum fold (Fold) increase of Smn protein (Smn protein): ** (a fold increase between >1.2 and ≦1.35 is indicated by two stars (**))
melting point: 271 to 273 °C

Cl.O=c1oc2nc(N3CCCNCC3)ccc2cc1-c1cn2ccsc2n1 [Cpd 32, 7-(1,4-diazepan-1-yl)-3-(imidazo[2,1-b][1,3]thiazol-6-yl)-2H-pyrano[2,3-b]pyridin-2-one hydrochloride]
EC (1.5-fold) [1]: ≤ 0.1 µM
maximum fold (Fold) increase of Smn protein (Smn protein): *** (a fold increase between >1.35 and ≦1.5 is indicated by three stars (***))
melting point: 267 to 269 °C

Cc1ccc2nc(-c3cc4cnc(N5CCN(C)CC5)cc4oc3=O)cn2c1 [Cpd 34, 3-(6-methylimidazo[1,2-a]pyridin-2-yl)-7-(4-methylpiperazin-1-yl)-2H-pyrano[3,2-c]pyridin-2-one]
EC (1.5-fold) [1]: 1 to 3 µM
maximum fold (Fold) increase of Smn protein (Smn protein): *** (a fold increase between >1.35 and ≦1.5 is indicated by three stars (***))
melting point: 264 to 268 °C

CN1CCCN(c2ccc3cc(-c4cn5cccnc5n4)c(=O)oc3n2)CC1 [Cpd 36, 3-(imidazo[1,2-a]pyrimidin-2-yl)-7-(4-methyl-1,4-diazepan-1-yl)-2H-pyrano[2,3-b]pyridin-2-one]
EC (1.5-fold) [1]: 0.3 to 1 µM
EC1.5x for Smn protein expression (Smn protein): ** (an EC1.5× between >1 and ≦3 μM is indicated by two stars (**))
maximum fold (Fold) increase of Smn protein (Smn protein): **** (a fold increase between >1.5 and ≦1.65 is indicated by four stars (****))
melting point: 232 to 234 °C

CN1CCCN(c2ccc3cc(-c4nc5c(Cl)cccc5s4)c(=O)oc3n2)CC1 [Cpd 37, 3-(4-chloro-1,3-benzothiazol-2-yl)-7-(4-methyl-1,4-diazepan-1-yl)-2H-pyrano[2,3-b]pyridin-2-one]
EC (1.5-fold) [1]: ≤ 0.1 µM
EC1.5x for Smn protein expression (Smn protein): ** (an EC1.5× between >1 and ≦3 μM is indicated by two stars (**))
maximum fold (Fold) increase of Smn protein (Smn protein): *** (a fold increase between >1.35 and ≦1.5 is indicated by three stars (***))
melting point: 263 to 265 °C

CN1CCN(c2ccc3cc(-c4cn5ccccc5n4)c(=O)oc3n2)CC1 [Cpd 38, 3-(imidazo[1,2-a]pyridin-2-yl)-7-(4-methylpiperazin-1-yl)-2H-pyrano[2,3-b]pyridin-2-one]
EC (1.5-fold) [1]: 0.1 to 0.3 µM
EC1.5x for Smn protein expression (Smn protein): *** (an EC1.5× between >0.3 μM and ≦1 μM is indicated by three stars (***))
maximum fold (Fold) increase of Smn protein (Smn protein): ***** (a fold increase >1.65 is indicated by five stars (*****))
melting point: 243 to 246 °C

Cc1ccn2cc(-c3cc4ccc(N5CCN(C)CC5)nc4oc3=O)nc2c1 [Cpd 39, 3-(7-methylimidazo[1,2-a]pyridin-2-yl)-7-(4-methylpiperazin-1-yl)-2H-pyrano[2,3-b]pyridin-2-one]
EC (1.5-fold) [1]: ≤ 0.1 µM
EC1.5x for Smn protein expression (Smn protein): **** (an EC1.5×≦0.3 μM is indicated by four stars (****))
maximum fold (Fold) increase of Smn protein (Smn protein): **** (a fold increase between >1.5 and ≦1.65 is indicated by four stars (****))
melting point: 264 to 268 °C
